Data taken from US20050245508A1, “Treatment of malignant gliomas with TGF-beta inhibitors” (SCIOS, Inc., priority 2003, published 2005).

Legend:
LN-308 glioma cells [1] = assay: Glioma cell growth, [methyl-3H]-thymidine incorporation; assay type: cell-based, human
Experimental: (§1) FIG. 2. Abrogation of autocrine TGF-β signaling in glioma cells by Compound No. 79. A. The cells were seeded at 10^4 cells/well in 96 well plates and cultured in the absence or presence of Compound No. 79 for 48 h in serum-free medium. Growth was assessed by [methyl-^3H]-thymidine incorporation at 48 h (*p<0.05, t-test). B. Lysates from untreated glioma cells or cells preexposed to Compound No. 79 (1 μM) for 24 h or exposed to TGF-b2 (5 ng/ml) for 1 h or both were assessed for the levels of p-Smad2 or total Smad2/3. Note that the antibodies were specific to p-Smad2 and total Smad 2 and 3, respectively.
(§2) The glioma cells and CCL64 cells were maintained in DMEM supplemented with 2 mM L-glutamine (Gibco Life Technologies, Paisley, UK), 10% FCS (Biochrom KG, Berlin, Germany) and penicillin (100 IU/ml)/streptomycin (100 μg/ml) (Gibco). Growth and viability of the glioma cells was examined by crystal violet, LDH release (Roche, Mannheim, Germany) and trypan blue dye exclusion assays. To assess clonogenicity, 500 SMA-560 cells were seeded into 6 well plates (9.4 cm^2). After formation of visible cell formations, colonies>20 cells were counted.

SMA-560 glioma cells [2] = assay: as above; assay type: cell-based, murine
Experimental: as §1, §2

LN-308 glioma cells [3] = assay: Cytotoxicity, LDH release and trypan blue dye exclusion; assay type: cell-based, human; conditions: up to 1 μM for 72 h
Experimental: as §2

SMA-560 glioma cells [4] = assay: as above; assay type: cell-based, murine; conditions: up to 1 μM for 72 h
Experimental: as §2

LN-308 glioma cells [5] = assay: Flow cytometric cell cycle analysis; assay type: cell-based, human; conditions: 0.01, 0.1 or 1 μM, 48 h, data not shown
Experimental: (§3) The adherent glioma cells were detached nonenzymatically using cell dissociation solution (Sigma). Cell cycle analysis was performed by using fixed and permeabilized glioma cells (70% ethanol). RNA was digested with RNase A (Life Technologies, Inc.). DNA was stained with propidium iodide (50 μg/ml).

SMA-560 glioma cells [6] = assay: Flow cytometric cell cycle analysis; assay type: cell-based, murine; conditions: 0.01, 0.1 or 1 μM, 48 h, data not shown
Experimental: as §3

LN-308 targets [7] = assay: 51Cr release lysis assay, PBL or T cells precultured with irradiated glioma cells; assay type: cell-based, human; conditions: preexposure 1 μM during coculture with irradiated glioma cells, 4 h 51Cr release, FIG. 3A
Experimental: (§4) FIG. 3. Modulation of allogeneic anti-glioma immune responses by Compound No. 79 involves TGF-β antagonism. A. The lytic activity against LN-308 targets of PBL (squares) or purified T cells (triangles) preincubated with irradiated LN-308 cells in the absence (open symbols) or presence (filled symbols) of Compound No. 79 (1 μM) was determined in ^51Cr release assays. B-D. PBL were cultured in the absence (left) or presence (right) of irradiated LN-308 cells for 5 days. The cultures contained Compound No. 79 (1 μM) (filled bars) or not (open bars). Subsequently these effector cells were cocultured for 24 h with fresh non-irradiated LN-308 cells in the absence of Compound No. 79. The release of IFN-γ (B), TNF-α (C) or IL-10 (D) was assessed by Elispot assay. Data are expressed as cytokine-producing cells per 5×10^5 effector cells (n=3, *p<0.05, **p<0.01, t-test, effect of Compound No. 79). […]
(§5) HLA-A2-mismatched PBL or T cells (107/25 cm2 flask) were cocultured with 106 irradiated (30 Gy) glioma cells for 5 days. […] The maximum 51Cr release was determined by addition of NP40 (1%). After 4 h the supernatants were transferred to a Luma-PlateTM-96 (Packard, Dreieich, Germany) and measured. The percentage of 51Cr release was calculated as follows: 100×([experimental release−spontaneous release]/[maximum release−spontaneous release]).

[8] = test system: HLA-mismatched PBL cocultured with LN-308 cells; assay: Cytokine release by immune effector cells, Elispot; assay type: cell-based, human; conditions: 1 μM
Experimental: as §4
IL-10, TNF-α and IFN-γ release by immune effector cells was assessed by Elispot assay in a multiscreen-HA 96 well plate (Millipore, Eschborn, Germany), coated with corresponding anti-human capture antibodies (Becton Dickinson). […] Spots were counted on an Elispot reader system (AID, Straβberg, Germany). […]

LN-308 targets [9] = assay: Polyclonal NK cell lytic activity, 51Cr release; assay type: cell-based, human
Experimental: FIG. 3. Modulation of allogeneic anti-glioma immune responses by Compound No. 79 involves TGF-β antagonism. A. The lytic activity against LN-308 targets of PBL (squares) or purified T cells (triangles) preincubated with irradiated LN-308 cells in the absence (open symbols) or presence (filled symbols) of Compound No. 79 (1 μM) was determined in ^51Cr release assays. B-D. PBL were cultured in the absence (left) or presence (right) of irradiated LN-308 cells for 5 days. The cultures contained Compound No. 79 (1 μM) (filled bars) or not (open bars). Subsequently these effector cells were cocultured for 24 h with fresh non-irradiated LN-308 cells in the absence of Compound No. 79. The release of IFN-γ (B), TNF-α (C) or IL-10 (D) was assessed by Elispot assay. Data are expressed as cytokine-producing cells per 5×10^5 effector cells (n=3, *p<0.05, **p<0.01, t-test, effect of Compound No. 79). E, F. Polyclonal NK cell cultures were exposed to TGF-β1 (5 ng/ml) (E) or diluted (1:4) glioma cell SN (F), without or with Compound No. 79 (1 μM), for 48 h and subsequently used as effectors in ^51Cr release assays using LN-308 cells as targets. Compound No. 79 alone or TGF-β antibody alone had no effect on NK cell activity in these assays (data not shown).
Human PBMC were isolated from healthy donors by density gradient centrifugation (Biocoll, Biochrom KG). Monocytes were depleted by adhesion and differential centrifugation to obtain peripheral blood lymphocytes (PBL). To obtain purified T cells, the PBMC were depleted of B cells and monocytes using LymphoKwik T™ reagent (One Lambda Inc., Canoga Park, Calif.). […]
as §5

[10] = concentrations required to block TGF-β in the CCL64 bioassay, 48 h
[11] = higher concentrations of up to 1 μM, FIG. 2A

## Fc1ccc(Cl)cc1-c1nc(Nc2ccncc2)c2nccnc2n1 [Compound No. 79]
LN-308 glioma cells [1]; [10]
  proliferation: no effect
LN-308 glioma cells [1]; [11]
  growth: moderately inhibited
SMA-560 glioma cells [2]; [10]
  proliferation: no effect
SMA-560 glioma cells [2]; [11]
  growth: moderately inhibited
LN-308 glioma cells [3]
  cytotoxic effects: neiter LDH release nor trypan blue dye exclusion assays revealed cytotoxic effects
SMA-560 glioma cells [4]
  cytotoxic effects: neiter LDH release nor trypan blue dye exclusion assays revealed cytotoxic effects
LN-308 glioma cells [5]
  cell cycle arrest: no specific type of cell cycle arrest
SMA-560 glioma cells [6]
  cell cycle arrest: no specific type of cell cycle arrest
LN-308 targets [7]
  lytic activity of HLA-A2-mismatched PBL or purified T cells: significantly enhanced
[8]; PBL primed in presence of LN-308 cells, FIG. 3B
  IFN-γ release: restored the IFN-γ release to levels comparable to PBL pre-cultured in the absence of LN-308 cells
[8]; unstimulated and glioma cell-primed cultures, FIG. 3D
  IL-10 release: reduced
LN-308 targets [9]; TGF-β1 5 ng/ml, 1 μM, 48 h, FIG. 3E
  TGF-β-mediated inhibition of NK cell lytic activity: relieved
LN-308 targets [9]; supernatant diluted 1:4, 48 h, FIG. 3F
  inhibition of NK cell activity by LN-308 cell supernatants: blocked
LN-308 targets [9]; without TGF-β or supernatant, data not shown
  NK cell activity, agent alone: no effect
